Experimental data published in US7851487B2, “Use of tetrahydropyridines in the treatment of central nervous system disorders” (The Research Foundation of State University of New York, priority 2006, dated 2010).

Experiments:
Serotonin 5HT1A = biological target: T1, Serotonin 5HT1A (Homo sapiens, UniProt P08908); assay: Radioligand binding, Serotonin 5HT1A; conditions: read-out: Percentage Inhibition
T1 sequence (P08908 1-422): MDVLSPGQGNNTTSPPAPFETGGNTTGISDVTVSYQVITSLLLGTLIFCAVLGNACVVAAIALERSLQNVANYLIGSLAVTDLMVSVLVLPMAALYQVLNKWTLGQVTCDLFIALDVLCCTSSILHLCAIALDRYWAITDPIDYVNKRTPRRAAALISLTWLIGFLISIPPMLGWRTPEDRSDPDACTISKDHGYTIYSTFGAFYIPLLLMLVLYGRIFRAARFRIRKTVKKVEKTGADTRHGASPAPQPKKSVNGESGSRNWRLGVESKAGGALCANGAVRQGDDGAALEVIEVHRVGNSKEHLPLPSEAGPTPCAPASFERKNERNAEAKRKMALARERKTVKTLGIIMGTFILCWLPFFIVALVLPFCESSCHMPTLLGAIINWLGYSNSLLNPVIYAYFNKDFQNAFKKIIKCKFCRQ
Protocol: (§1) The assays utilized human neuroreceptors and were performed under the experimental parameters set forth in Table 2 using standard techniques.
(§2) For Table 3, IC50 values were determined by non-linear, least squares regression analysis using Data Analysis Toolbox™ (MDL Information Systems, San Leandro, Calif., USA). Inhibition constants (KI) were calculated using the equation of Cheng and Prusoff (Cheng, Y., et al. Biochem. Pharmacol. 22:3099-3108, 1973) using the observed IC50 of the tested compound, the concentration of radioligand employed in the assay, and the values for the KD of the ligand. The Hill coefficient (nH), defining the slope of the competitive binding curve, was calculated using the Data Analysis Toolbox™. Biochemical assay results are presented as the percent inhibition of specific binding or activity unless indicated otherwise. The experiments summarized in Table 3 utilized human dopamine D1, D2 s, D21, D3, D4.2, D4.4, serotonin 5HT1A, 5HT2A, 5HT2C, 5HT6, 5HT7, dopamine transporter (DAT), serotonin transporter (SERT) and the norepinephrine transporter (NET), as indicated in Table 3.

Dopamine D4.2 = biological target: T2, Dopamine D4.2 (Homo sapiens, UniProt P21917, DEL265-296); assay: Radioligand binding, Dopamine D4.2 ([3H]Spiperone)
T2 construct: host or cells: CHO-K1 cells
T2 sequence (P21917 with tags, fused parts or gaps DEL265-296): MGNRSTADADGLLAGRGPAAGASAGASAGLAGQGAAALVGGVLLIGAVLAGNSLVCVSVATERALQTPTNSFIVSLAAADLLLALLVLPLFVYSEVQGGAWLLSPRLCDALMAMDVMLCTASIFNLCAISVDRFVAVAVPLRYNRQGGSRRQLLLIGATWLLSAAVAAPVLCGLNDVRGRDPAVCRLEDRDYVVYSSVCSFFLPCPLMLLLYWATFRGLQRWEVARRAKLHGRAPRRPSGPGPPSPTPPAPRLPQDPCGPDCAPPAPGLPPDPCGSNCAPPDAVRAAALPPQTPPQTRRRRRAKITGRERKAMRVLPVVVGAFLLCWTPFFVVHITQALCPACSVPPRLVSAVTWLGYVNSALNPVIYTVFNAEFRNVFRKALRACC
Protocol: as §1, §2

Serotonin 5HT7 = biological target: T3, Serotonin 5HT7 (Homo sapiens, UniProt P34969); assay: Radioligand binding, Serotonin 5HT7 ([3H]LSD)
T3 construct: host or cells: CHO cells
Protocol: as §1, §2

Dopamine D1 = Dopamine D1 (Homo sapiens, UniProt P21728); assay: Radioligand binding, Dopamine D1; conditions: Dopamine D1, 10 μM; read-out: Percentage Inhibition
Protocol: as §1, §2

ckr mouse = assay: Prepulse inhibition (PPI) of the startle reflex in ckr mice; format: in vivo; conditions: 10 mg/kg
Protocol: To obtain the ckr mouse model presented in this Example, a representative compound 2 as set forth in Example 3 was used to investigate a standard measure of sensorimotor gating of the startle reflex. Sensorimotor gating of the startle reflex was assessed via measures of prepulse inhibition (PPI), which is the reduction in startle magnitude when the startling stimulus is preceded immediately by a weak prepulse. This measurement is valuable because the relative loss of PPI has been established in inherited neurodevelopmental disorders, such as schizophrenia in humans, as well as in rats after treatment with certain classes of drugs, including serotonin (5-HT) agonists. In animal models, the PPI test is considered to have good face, predictive and construct validity for sensorimotor gating deficits in schizophrenia.
A stock solution of compound 2 was dissolved in DMSO, and then diluted to 10 mg/10 ml with distilled water such that the final concentration of DMSO was 0.5%. […]
Startle reactivity was measured using a startle chamber (SR-LAB, San Diego Instruments, San Diego, Calif.). […]
The protocol for measuring PPI was adapted from known techniques. […] The startle response was recorded as the average movement detected over 65 ms following the pulse. […]
The startle amplitude was measured as the average startle response for the pulse-alone trials. […]

T3 sequence (P34969 whole entry): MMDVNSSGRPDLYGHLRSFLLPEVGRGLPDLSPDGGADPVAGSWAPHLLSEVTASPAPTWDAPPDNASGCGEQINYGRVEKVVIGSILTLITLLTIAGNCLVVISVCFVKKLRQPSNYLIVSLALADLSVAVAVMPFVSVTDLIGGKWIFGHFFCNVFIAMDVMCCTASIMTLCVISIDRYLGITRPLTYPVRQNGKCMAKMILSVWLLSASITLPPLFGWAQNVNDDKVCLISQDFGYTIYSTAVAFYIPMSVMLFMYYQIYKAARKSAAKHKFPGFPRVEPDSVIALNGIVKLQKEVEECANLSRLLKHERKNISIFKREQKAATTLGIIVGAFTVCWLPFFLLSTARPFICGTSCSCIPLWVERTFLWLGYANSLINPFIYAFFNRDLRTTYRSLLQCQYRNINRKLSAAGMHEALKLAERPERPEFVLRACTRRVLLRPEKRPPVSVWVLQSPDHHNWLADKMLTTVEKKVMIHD
Dopamine D1, sequence (P21728 whole entry): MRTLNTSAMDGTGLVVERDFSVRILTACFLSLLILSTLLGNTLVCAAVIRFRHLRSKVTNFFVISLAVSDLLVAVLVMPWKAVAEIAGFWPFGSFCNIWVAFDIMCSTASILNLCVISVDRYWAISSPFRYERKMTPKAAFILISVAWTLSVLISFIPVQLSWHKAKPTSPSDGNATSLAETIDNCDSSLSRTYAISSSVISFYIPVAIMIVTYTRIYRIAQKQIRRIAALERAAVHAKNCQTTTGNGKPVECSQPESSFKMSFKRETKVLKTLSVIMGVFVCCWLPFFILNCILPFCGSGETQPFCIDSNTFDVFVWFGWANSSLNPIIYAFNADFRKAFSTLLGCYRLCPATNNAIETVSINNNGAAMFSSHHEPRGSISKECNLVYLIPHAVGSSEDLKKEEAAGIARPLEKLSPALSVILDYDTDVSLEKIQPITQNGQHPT

Work on `COC(=O)[C@@H](c1ccc(-c2ccccc2)cc1)[C@H]1C=CCCN1` [Compound 2] yielded an inhibition at 10 µM (Serotonin 5HT1A) of 13%, an IC50 (Dopamine D4.2) of 50.5 µM and a Ki (Dopamine D4.2) of 19.7 µM. The nH (Dopamine D4.2; Dopamine D4.2, Hill coefficient) was 1.76, the “Percentage Inhibition” value (Dopamine D4.2; Dopamine D4.2, concentration 100 (unit not given)) was 79% and the IC50 (Serotonin 5HT7) was 25.8 µM. The Ki (Serotonin 5HT7) was 14.8 µM, the inhibition at 30 µM (Serotonin 5HT7; Serotonin 5HT7, 30 μM, read-out: Percentage Inhibition) was 53% and the nH (Serotonin 5HT7; Serotonin 5HT7, Hill coefficient) was 0.774. For the same compound, the inhibition at 10 µM (Dopamine D1) was 17% and the “PPI over the control across all pre-pulse intensities” value (ckr mouse) was “trend of increased PPI”.
